# From BindingDB's records for PubMed 40053382 (Sapienza University of Rome)
# Key:
# [1] = Inhibition of HIV-1 integrase strand transfer activity
# [2] = Inhibition of wild type HIV-1 LAI reverse transcriptase
# [3] = Inhibition of HIV-1 Reverse transcriptase K103N/Y181C double mutant
# [4] = Inhibition of HIV-1 Reverse transcriptase K103N mutant
# [5] = Inhibition of HIV-1 Reverse transcriptase L100I/K103N double mutant
Structure (SMILES),IC50 [1],IC50 [2],IC50 [3],IC50 [4],IC50 [5]
CCOCn1c(SC)nc(C(C)C)c1CC1CCCCC1,250 nM,–,–,–,–
CCc1nc(SC)n(COCc2ccccc2)c1CC1CCCCC1,400 nM,–,–,–,–
CSc1nc(C(C)C)c(Cc2ccccc2)n1COCc1ccccc1,3300 nM,–,–,–,–
Cc1cc(C#N)cc(C)c1Oc1ncnc(Nc2ccc(C#N)cc2)n1,–,1.4 nM,25 nM,1.4 nM,49 nM
Cc1cc(/C=C/C#N)cc(C)c1Nc1ncnc(Nc2ccc(C#N)cc2)n1,–,0.4 nM,1 nM,0.3 nM,–
Cc1cc(C#N)cc(C)c1Nc1ncnc(Nc2ccc(C#N)cc2)n1,–,0.4 nM,32 nM,0.4 nM,–
CSc1nc(C(C)C)c(CC2CCCCC2)n1COCc1ccccc1,260 nM,–,–,–,–
